Experimental data reported in patent US9763995B2, “Polymer conjugates of protegrin peptides” (Nektar Therapeutics, priority 2008, dated 2017).

How the values were obtained:
rat red blood cells = experiment: Hemolysis assay; type: cell-based
Procedure: Hemolysis assay. Approximately 10 mL of blood was drawn from one adult rat into Na Heparin tube and kept in ice until use. Red blood cells were washed three times with 10 mL of cold DPBS ((−) CaCl2 and (−) MgCl2) and collected by sequential centrifugation at 3,000 g for 5 min at 4° C. Pellets of red blood cells were resuspended with DPBS ((−) CaCl2 and (−) MgCl2) and the total volume was brought up to initial volume of blood drawn. One mL of resuspended red blood cells was resuspended with 49 mL of DPBS ((−) CaCl2 and (−) MgCl2). Incubation mixture was prepared by 400 fold dilution of stock solution of test compounds with final volume of 800 μl. Final concentration of test compounds was equimolar to that of respective unconjugated compounds. Hemolysis incubation was done at 37° C. with mild agitation. For releasable conjugates, test compounds were preincubated in 1×PBS at 37° C. prior to hemolysis assay. Incubation mixture was centrifuged at 3,000 g for 5 min at 4° C., and the absorbance at 550 nm was read from supernatant. […] [table]

[1] = Pharmacokinetic studies of the protegrin conjugates, single IV dose; type: in vivo, Sprague-Dawley rats; conditions: equivalent protein mass 1.6 mg/kg IV
Procedure: Twenty one (21) adult male Sprague-Dawley rats with indwelling jugular vein and carotid artery catheters (JVC/CAC) (Charles River Labs, Hollister, Calif.) were utilized for this study. The weight range of the animals was 313-346 grams. All animals were food fasted overnight. Prior to dosing the rats were weighed, the tails and cage cards were labeled for identification and the doses were calculated. Anesthesia was induced and maintained with 3.0-5.0% isoflurane. The JVC and CAC were externalized, flushed with HEP/saline (10 IU/mL HEP/mL saline), plugged, and labeled to identify the jugular vein and carotid artery The predose sample was collected from the JVC. […] Following the last collection point, the animals were euthanized. Bioanalytical analysis: analysis of the plasma samples was conducted using non-validated LC-MS/MS methods. Noncompartmental PK data analysis and report preparation was completed. PK analysis was performed using WinNonlin (Version 5.2, Mountain View, Calif.-94014). Concentrations in plasma that were below LLOQ were replaced with zeros prior to generating Tables and PK analysis. The following PK parameters were estimated using plasma concentration-time profile of each animal: • C0 Extrapolated concentration to time “zero” • Cmax Maximum (peak) concentration • AUCall Area under the concentration-time from zero to time of last concentration value • T1/2(Z) Terminal elimination half-life • AUCinf Area under the concentration-time from zero to time infinity • Tmax Time to reach maximum or peak concentration following administration • CL Total body clearance • Vz Volume of distribution based on terminal phase • Vss Volume of distribution at steady state • MRTlast Mean residence time to last observable concentration

[2] = non-releasable PEG conjugates, Sprague Dawley rats, Mean ± SD
[3] = protegrin-1 in plasma, rats, native or via releasable PEG conjugate

With `CC(C)C[C@H](NC(=O)[C@H](CCCNC(=N)N)NC(=O)CNC(=O)CNC(=O)[C@@H](N)CCCNC(=N)N)C(=O)N[C@H]1CSSC[C@@H](C(=O)N[C@H](C(=O)NCC(=O)N[C@@H](CCCNC(=N)N)C(N)=O)C(C)C)NC(=O)[C@H](C(C)C)NC(=O)[C@@H]2CSSC[C@H](NC(=O)[C@H](Cc3ccc(O)cc3)NC1=O)C(=O)N[C@@H](CCCNC(=N)N)C(=O)N[C@@H](CCCNC(=N)N)C(=O)N[C@@H](CCCNC(=N)N)C(=O)N[C@@H](Cc1ccccc1)C(=O)N2` [Protegrin-1] the “hemolytic effects / hemolytic activity” value (rat red blood cells; rat red blood cells, 37° C., relative to 100% hemolysis by 0.25% Triton X-100, releasable conjugates preincubated in 1XPBS at 37° C.) was “comparable to literature data”, the “hemolytic activity retained compared to PG1 preincubated for 0 hr” value (rat red blood cells; red cells of rat, 96 h) was “about 60%” and the Tmax ([1]; male, Sprague-Dawley, rat, in vivo, protegrin-1 in plasma, rats, native or via releasable PEG conjugate) was 1.8 min. For the same compound, the AUCINF [1, 2] was 1160 ± 351 ng·h/mL, the CL [1, 2] was 1470 ± 434^ mL/hr/kg and the Cmax [1, 2] was 2050 ± 601 ng/mL. The MRTlast [1, 2] was 31.2 ± 3 min, the T1/2 [1, 2] was 21 ± 6 min and the Vss [1, 2] was 0.848 ± 0.36 L/kg. The AUCINF [1, 3] was 1160 ng·h/mL, the Cmax [1, 3] was 2050 ng/mL and the MRTlast [1, 3] was 31.2 min. The T1/2 [1, 3] was 21 min.
